The values that follow come from PubChem BioAssay (NCI).

What all share (assay): NCI anticancer screen, dose series, 48 h
Test [1] deals with OVCAR-5 ovarian.
Test [2] has as its system SK-MEL-2 melanoma.
For test [3], the system named is HOP-62 NSCLC.
In test [4] the test system is UACC-62 melanoma.
Test [5] has as its system SF-268 CNS.
The subject of test [6] is COLO 205 colon.
For test [7], the system named is OVCAR-4 ovarian.
In test [8] the test system is HS 578T breast.
For test [9], the system named is MALME-3M melanoma.
Test [10] relates to BT-549 breast.

Where “and” joins values, the source holds several entries; their conditions need not be identical. Identical values can stand only once.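 Dose response: 5 concentrations. Exposure: 48 h. Format: 96-well plates. Endpoint: linear interpolation; highest concentration if not reached. At the GI50, growth is halved. TGI: concentration producing complete growth inhibition.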

On to `CN1N=C(c2ccncc2)OC1c1ccccc1F` (stereo not drawn), for which the TGI in [1], in test [2], in [3], in test [4], in test [5] and in [6] was greater than 100 µM in each case. Besides, the TGI in test [7] and in test [8] was greater than 100 µM in each case.
As to `CN1CCN(C2=C(Cl)C3(OCCS3)C(F)(F)C2(F)F)CC1` (stereo not drawn), the TGI in test [1], in [9], in test [2], in test [3], in test [4] and in [5] was greater than 100 µM in each case. Moreover, the TGI in [6], in test [7] and in test [8] was greater than 100 µM throughout.
Turning to `c1ccc2c(c1)CCCC/C2=N/OCC1CO1` (stereo not drawn), the TGI in [9], in test [2], in test [5] and in [6] was greater than 100 µM throughout.
`CC1=NNC(=O)C1C1CC(c2c[nH]c3ccccc23)=NN=C1Cl` (stereo not drawn): the TGI in test [1], in test [9], in test [2], in test [3], in test [4] and in test [10] was greater than 100 µM throughout. The TGI in test [5] was greater than 100 µM; in test [6], 80.6 µM; in [8], greater than 100 µM.
Turning to `O=C(O)/C=C\C(=O)Nc1ccc(S(=O)(=O)c2ccc(NC(=O)/C=C\C(=O)O)cc2)cc1`, the TGI in test [1], in test [9], in test [2], in test [3], in [4] and in [5] was greater than 100 µM each time. Moreover, the TGI in [6] and in test [7] was greater than 100 µM in each case.
Consider `CN(C)c1cccc2c1C(=O)C=CC21c2ccc(N(C)C)c3c(N(C)C)ccc(c23)C(c2ccccc2)C1c1ccccc1` (stereo not drawn), for which the TGI in [1] worked out at 81.7 µM; in test [9], 35.6 µM; in test [3], 39.2 µM; in test [4], 54.7 µM; in test [5], 53.9 µM; in test [6], 25.7 µM. Moreover, the TGI in test [7] is 27.2 µM; in [8] it was 45.3 µM.
Take `O=C1c2cccc(O)c2C(=O)c2c(O)cc(CO)cc21`: the TGI in test [1] is greater than 100 µM; in test [9], 83.6 µM; in [2], greater than 100 µM; in test [3] it was greater than 100 µM; in [5], greater than 100 µM; in [6], greater than 100 µM. The molecule further came in with a TGI in [7] greater than 100 µM.
For `CCOC(=O)C1CCC(=O)N1C(=O)c1ccccc1Cl` (stereo not drawn), the TGI in test [1] was greater than 100 µM; in test [9], greater than 100 µM; in test [3], greater than 100 µM; in [4] it was 95.5 µM; in test [10], greater than 100 µM; in test [5], greater than 100 µM. Also, the TGI in [8] is greater than 100 µM.
Regarding `C=CCN1C(=O)/C(=C/c2ccc(C)cc2)N=C1SC1OC(COC(C)=O)C(OC(C)=O)C(OC(C)=O)C1OC(C)=O` (stereo not drawn), the TGI in test [1], in test [9], in [2], in test [3], in test [4] and in test [10] was greater than 100 µM each time. Moreover, the TGI in test [6] is greater than 100 µM; in [7], 64.1 µM. Also, the GI50 is > 100 µM and 38.3 µM in test [2]; 5.17 µM and 47.4 µM in test [3]; 3.83 µM and 37.1 µM in test [4].
As for `O=C1C2=Nc3ccccc3C(O)(C(=O)O)N2c2ccccc21` (stereo not drawn), the TGI in [1] was 49.4 µM; in test [9] it was 28.2 µM; in test [2], 43.4 µM; in test [3], greater than 100 µM; in [5], greater than 100 µM; in test [6], 36.6 µM. In addition, the TGI in test [7] is 32.4 µM; in test [8], greater than 100 µM.
In the case of `COc1ccc(/C=N/n2c(C)nc3c(sc(=S)n3-c3ccccc3)c2=O)cc1`, the TGI in test [1], in [3], in [4], in test [5] and in [6] was greater than 100 µM throughout.
Regarding `COc1ccc(N2C(=O)C3c4[nH]c5ccccc5c4C4CCCCCCCCCC4C3C2=O)cc1` (stereo not drawn), the TGI in test [1], in test [9], in test [2], in test [3], in test [4] and in test [5] was greater than 10 µM each time. Further, the TGI in [6], in test [7] and in test [8] was greater than 10 µM throughout.
In the case of `C[C@H]1OC(=O)[C@@H]2N=NN(Cc3ccccc3)[C@H]12`, the TGI in [1], in [9], in test [2], in test [3], in [4] and in test [5] was greater than 100 µM in each case. Also, the TGI in [6] and in test [7] was greater than 100 µM throughout.
Consider `CC#CC(O)(C(=O)OC1CC(C)N(C)C(C)(C)C1)C1CCCC1` (stereo not drawn), for which the TGI in [1], in test [9], in [3], in test [4], in test [10] and in test [5] was greater than 100 µM in each case. Moreover, in test [6], the TGI was greater than 100 µM.
For the molecule `CC(C)C(N)C(=O)NC(CCC(=O)NCCCCC(N)C(=O)NCCCNc1ccc([N+](=O)[O-])c2[nH]c3ccccc3c(=O)c12)C(N)=O` (stereo not drawn), the TGI was greater than 100 µM in test [1]; greater than 100 µM in test [2]; greater than 100 µM in test [3]; greater than 100 µM in test [4]; 29.4 µM in [10]; greater than 100 µM in [5]. In addition, the TGI in [6] and in test [7] was greater than 100 µM throughout.
`O=C1OC(c2ccccc2)N(C(=O)c2ccccc2)C1Cc1ccc(OCc2ccccc2)cc1` (stereo not drawn): the TGI in test [1], in [2], in test [3], in [4], in test [5] and in test [6] was greater than 100 µM in each case. The molecule further yielded a TGI in [8] greater than 100 µM.
Take `CCOC(=O)c1ccc(Nc2nc3ccc(C(F)(F)F)cc3nc2C(=O)OCC)cc1`: the TGI in test [1], in test [9], in test [3], in test [4], in test [10] and in test [5] was greater than 100 µM in each case. Moreover, the TGI in [6] and in [8] was greater than 100 µM in each case.
For `CC1(C)OC2COC3([C@@H]4OC(C)(C)O[C@@H]4CO)OC(C)(C)OC3C2O1` (stereo partly drawn), the TGI in test [1], in test [2], in test [3], in test [4], in test [10] and in [6] was greater than 100 µM throughout. Moreover, the TGI in test [7] is greater than 100 µM.
`CC(C)N1CN(c2ccccc2)C2(CCN(CCCC(=O)c3ccc(F)cc3)CC2)C1=O`: the TGI in test [1] is 30.9 µM; in [9] it was 29.6 µM; in test [2] it was 28.3 µM; in test [3] it was 11.9 µM; in test [4] it was 38.7 µM; in test [5], greater than 63.4 µM. Further, the TGI was 1.7 µM in test [6], greater than 76 µM in test [7] and 49.1 µM in [8].
For the molecule `O=C(CC(C(=O)c1ccco1)c1ccco1)c1ccco1` (stereo not drawn), the TGI in test [1], in test [3], in test [4], in [5], in [6] and in [7] was greater than 100 µM in each case. Besides, the TGI in test [8] was greater than 100 µM.
Turning to `C[C@]12CC[C@@H]3c4ccc(O)cc4CC[C@H]3[C@@H]1C/C(=C\c1ccc(C#N)cc1)C2=O`, the TGI in test [1], in test [9], in [2], in test [3], in test [4] and in [10] was greater than 100 µM each time. The TGI in test [5], in test [6] and in test [7] was greater than 100 µM in each case.
`CC1(C)CC(C#Cc2ccccc2)CC(C)(C)N1O`: the TGI in test [1] came to 44.2 µM; in [9] it was 32.9 µM; in [2], 43.6 µM; in [3], 32.7 µM; in [4], 42.5 µM; in test [5], 83.1 µM. In addition, the results for the TGI in [6], in test [7] and in test [8] were 49.4 µM, greater than 100 µM and 44.9 µM, respectively.
Turning to `CCN(CCCl)c1cc(CN(C)C)cc(NC(=O)c2ccc(C(=O)Nc3cccc(CN(C)C)c3)cc2)c1`, the TGI in test [1] is 93.2 µM; in [9] it was 2.81 µM; in [2], 1.61 µM; in test [3], 10.8 µM; in [4] it was 4.07 µM; in test [5] it was 63.1 µM. Besides, the TGI in [6] was 2.41 µM; in test [7], 6.08 µM; in [8] it was 0.671 µM.
For `COc1cccc2c1OCC1Cc3ccccc3OC21` (stereo not drawn), the TGI in test [1] was greater than 100 µM; in [9], greater than 100 µM; in test [2], greater than 100 µM; in test [3], greater than 100 µM; in [4], greater than 100 µM; in test [10], 52.2 µM. Moreover, the TGI is greater than 100 µM in test [5] and 96.1 µM in test [6].
For the molecule `O=C(O)CCCCCCCCC(=O)O`, the TGI in test [1], in test [9], in [2], in [3], in [4] and in test [5] was greater than 500 µM each time. Further, the TGI in [6] and in test [7] was greater than 500 µM in each case.
For the molecule `COc1ccc([C@H]2C=[N+]([O-])O[C@H](OC3CCCC3)[C@@H]2OC(C)=O)cc1OC`, the TGI in test [9] is 51.2 µM; in [2], greater than 100 µM; in test [3] it was greater than 100 µM; in test [4], 77.7 µM; in test [5] it was greater than 100 µM; in [6], 30.9 µM. The TGI in [7] is greater than 100 µM; in [8], 78.5 µM.
Turning to `Nc1ccc(-c2nn3c(COc4ccc(Cl)cc4)nnc3s2)cc1`, the TGI in [1], in test [9], in [2], in test [3], in test [4] and in test [5] was greater than 100 µM throughout. The TGI in test [6], in test [7] and in test [8] was greater than 100 µM each time. Besides, the GI50 in test [3] was 20.2 µM; in test [5] it was 46.8 µM.
`O=C1CS(=O)(=O)C(c2cccc(Oc3ccccc3)c2)N1c1cc(Cl)ccc1Cl` (stereo not drawn): the TGI is greater than 100 µM in test [1]; greater than 100 µM in test [9]; 30.2 µM in test [2]; 31.9 µM in [4]; 41.3 µM in [10]; 52.8 µM in test [5]. Besides, the TGI in [6] and in test [8] was greater than 100 µM in each case.
With `CSc1nc2c(ncn2C2OC(CO)C(O)C(O)C2O)c(=O)[nH]1` (stereo not drawn), the TGI in test [1], in test [9], in [2], in test [3], in test [4] and in test [5] was greater than 100 µM each time. In addition, the TGI in test [6] and in test [7] was greater than 100 µM throughout.
As to `COc1cc(C2c3cc4c(cc3[C@@H](Nc3ccc5c(c3)OCO5)C3COC(=O)[C@H]23)OCO4)cc(OC)c1O` (stereo partly drawn), the TGI in test [1] is greater than 59.4 µM; in test [9], 10.1 µM; in test [2], 5.96 µM; in [3], 0.715 µM; in test [4] it was 5.35 µM; in test [5], 30 µM. Also, the TGI in test [6] was found to be 7.41 µM.
As to `O=[N+]([O-])c1ccc2c(c1)c(N=NC(=S)Nc1ccc(Cl)cc1)c(O)n2CN1CCOCC1`, the TGI in test [9] came to 18.8 µM; in test [2] it was 26.3 µM; in test [4] it was 17.7 µM; in [5] it was 16.5 µM; in test [6], 27.8 µM; in [7], 21.6 µM. The molecule also had a TGI in test [8] of 28.4 µM.
As for `O=C(NN1C(=O)CSC1c1cccc(F)c1)c1ccncc1` (stereo not drawn), the TGI in [1], in test [9], in test [2], in test [4], in test [5] and in test [6] was greater than 100 µM in each case. Further, the TGI in [7] was greater than 100 µM.
